The values that follow come from article PMC9479156 (Frontiers in Pharmacology, 2022).

In test [1] the test system is asexual blood stage P. falciparum K1 (multidrug resistant). The conditions noted are these: ref Coertzen et al., 2018, Wong et al., 2019, cited from earlier work.
The test system of another test is A375 melanoma cells. On the set-up: method as in Wong et al., 2020. The conditions noted are these: ref Wong et al., 2020; cited from earlier work.
Test [2] deals with asexual blood stage P. falciparum W2 (multidrug resistant). On the set-up: method as in Coertzen et al., 2018; Wong et al., 2019. As to conditions: ref Coertzen et al., 2018, Wong et al., 2019, cited from earlier work.
The next test deals with tumour cell lines. On the set-up: method as in earlier work. The conditions noted are these: range over cell lines; ref Gravett et al., 2011; Hooft van Huijsduijnen et al., 2013; Dwivedi et al., 2015; Wu et al., 2018; Wong et al., 2020; read-out: IC50 against tumour cell lines; cited from earlier work.
Test [3] deals with asexual blood stage P. falciparum NF54 (drug sensitive). Kind of test: SYBR Green I proliferation assay, asexual blood stage Pf NF54. The test is classed as cell-based. As to conditions: Plasmodium falciparum, read-out: IC50 NF54. The method, then: (§1) In vitro cultivation of asexual and gametocyte P. falciparum parasites: P. falciparum asexual blood stage parasites were cultivated in human erythrocytes in RPMI-1640 media supplemented with AlbuMax II under sterile conditions and in a hypoxic environment (90% N2, 5% CO2, and 5% O2) at 37°C as described previously ([Coertzen et al., 2018]; [Wong et al., 2019]). Gametocytes were produced from asexual blood stage parasites in a stage-specific manner through induction of cellular stress as described previously ([Reader et al., 2015]; [Coertzen et al., 2018]; [Wong et al., 2019]; [Reader et al., 2022]).
DHA, artesunate, artemether, chloroquine (CQ), and methylene blue (MB) were used as reference drugs. All assay conditions are as previously described ([Coertzen et al., 2018]; [Wong et al., 2019]). […] Dose-responses were determined using a 2-fold serial drug dilution on in vitro 95% ring-stage intraerythrocytic Pf parasites (1% parasitemia, 1% hematocrit) at 37°C under 90% N2, 5% CO2, and 5% O2 atmospheric conditions, detecting SYBR green I fluorescence as a marker for parasite proliferation following a 96 h drug treatment ([Smilkstein et al., 2004]; [Verlinden et al., 2011]). Activity against the Pf drug-sensitive NF54 strain and the multi drug-resistant K1 (resistant to CQ, quinine, pyrimethamine, and cycloguanil), and W2 (resistant to CQ, quinine, pyrimethamine, and cycloguanil) strains was evaluated. […] Data analysis was performed using GraphPad Prism (version 6) software, intra-assay variability was monitored with Z-factors, and acceptable inter-assay reproducibility was determined from the percent coefficient of variation (CV) ([Reader et al., 2015]). […]
Activity was determined using the SYBR Green I based fluorescence assay on asexual blood stages of the NF54 (drug sensitive), K1 and W2 (drug resistant) strains of P. falciparum. […] Also included in Table 1 for direct comparison of activities against celastrol are data for the internal reference standards MB and artemisone recorded at the same time as for celastrol. […]

Test [4] relates to immature stage II-III P. falciparum NF54 gametocytes. On the set-up: method as in Coertzen et al., 2018, Wong et al., 2019. The conditions noted are these: ref Coertzen et al., 2018, Wong et al., 2019, cited from earlier work.
Test [5] has as its system asexual blood stage P. falciparum NF54 (drug sensitive). On the set-up: method as in Coertzen et al., 2018; Wong et al., 2019. As to conditions: SYBR Green I, mean ± SEM, ref Coertzen et al., 2018, Wong et al., 2019; cited from earlier work.
For test [6], the system named is late stage IV-V P. falciparum NF54 gametocytes. On the set-up: method as in Coertzen et al., 2018, Wong et al., 2019. As to conditions: ref Coertzen et al., 2018, Wong et al., 2019, cited from earlier work.
In test [7] the test system is multidrug resistant Pf K1 strain. The conditions noted are these: tritiated hypoxanthine assay; ref Figueiredo et al., 1998; Li et al., 2019; cited from earlier work.
The test system of test [8] is immature stage II-III P. falciparum NF54 gametocytes. Kind of test: Luciferase reporter gametocytocidal assay, immature gametocytes. The test is classed as cell-based, Plasmodium falciparum. The conditions noted are these: this study. On the procedure:
as §1
Untreated and 5 μM MB-treated immature and late-stage gametocytes were included as positive and negative controls. MB and artemisone were included as internal reference standards. In all cases, an interference assay to eliminate false positives from possible compound interference with the luciferase readout was run in parallel. […]
Stage-specific activities of celastrol against immature (stage II-III) and late stage (stage IV-V) gametocytes were determined with the luc reporter line as described previously ([Coertzen et al., 2018]; [Wong et al., 2019]). Also included in Table 2 for direct comparison of activities with celastrol are gametocytocidal data for MB, artemisone and the artemisinin derivatives recorded previously ([Coertzen et al., 2018]; [Wong et al., 2019]).
For orientation: In a reporter assay the amount or activity of a reporter protein is the signal.

The subject of test [9] is chloroquine sensitive Pf NF54 strain. The conditions noted are these: tritiated hypoxanthine assay; ref Figueiredo et al., 1998; Li et al., 2019; cited from earlier work.
Test [10] has as its system drug-sensitive and resistant asexual blood stage Pf. Kind of test: Asexual blood stage activity over all strains (abstract). The test is classed as cell-based. The conditions noted are these: Plasmodium falciparum, read-out: IC50 asexual blood stage Pf. The method, then: DHA, artesunate, artemether, chloroquine (CQ), and methylene blue (MB) were used as reference drugs. All assay conditions are as previously described ([Coertzen et al., 2018]; [Wong et al., 2019]). Compound working solutions were prepared from a 10 mM stock solution in 100% (v/v) dimethyl sulfoxide (DMSO; Sigma-Aldrich) in AlbuMAX II supplemented RPMI 1640 medium with a final DMSO concentration of 0.1% (v/v), shown to be nontoxic […] to intraerythrocytic asexual blood stage parasites ([Coertzen et al., 2018]). Dose-responses were determined using a 2-fold serial drug dilution on in vitro 95% ring-stage intraerythrocytic Pf parasites (1% parasitemia, 1% hematocrit) at 37°C under 90% N2, 5% CO2, and 5% O2 atmospheric conditions, detecting SYBR green I fluorescence as a marker for parasite proliferation following a 96 h drug treatment ([Smilkstein et al., 2004]; [Verlinden et al., 2011]). Activity against the Pf drug-sensitive NF54 strain and the multi drug-resistant K1 (resistant to CQ, quinine, pyrimethamine, and cycloguanil), and W2 (resistant to CQ, quinine, pyrimethamine, and cycloguanil) strains was evaluated. […] Data analysis was performed using GraphPad Prism (version 6) software, intra-assay variability was monitored with Z-factors, and acceptable inter-assay reproducibility was determined from the percent coefficient of variation (CV) ([Reader et al., 2015]). […]

Setting [11] is: asexual blood stage, SYBR Green I, mean ± SEM.
Setting [12] is: immature vs late stage gametocytes.

Read-outs that look alike come from different tables or passages of the source. Marks after values point to notes of the source that are not given here.

By IC50 is commonly meant the concentration at which inhibition is half-maximal. As for `C[C@H]1[C@H](N2CCS(=O)(=O)CC2)O[C@@H]2O[C@@]3(C)CC[C@H]4[C@H](C)CC[C@@H]1[C@@]24OO3` [Artemisone, artemisone], the half-maximal inhibitory concentration (IC50) was 0.00101 ± 0.00019 µM in test [1] (setting [11]); 95.7 µM in the test on A375 melanoma cells; 0.0016 ± 0.0004 µM in [2] (setting [11]); 0.26 to 95.7 µM in the test on tumour cell lines; 0.00232 ± 0.00076 µM in [3] (NF54, asexual blood stage, SYBR Green I, 96 h, mean ± SEM, this study); 0.00194 ± 0.00011 µM in test [4] (NF54 gametocytes, luciferase, 48 h, mean ± SEM, read-out: Immature stage II-III (luc 48 h) IC50). Moreover, the IC50 in [5] was 0.0012 µM; in [6] (NF54 gametocytes, luciferase, 72 h, mean ± SEM, read-out: Late stage IV-V (luc 72 h) IC50) it was 0.0424 ± 0.0033 µM. Besides, the “RI (resistance index) = IC50 K1/IC50 NF54” value in test [1] was 0.85 ^f. In addition, in test [2], the “RI = IC50 W2/IC50 NF54” value is listed as 1.36^f. Besides, the “Fold change preference ratio EG to LG” value in test [4] (setting [12]) is reported as 21.9. Also, the “Fold change preference ratio LG to EG” value in test [6] (late vs immature stage gametocytes) was 0.05.
As for `CC1=C(O)C(=O)C=C2C1=CC=C1[C@@]2(C)CC[C@@]2(C)[C@@H]3C[C@](C)(C(=O)O)CC[C@]3(C)CC[C@]12C` [Celastrol, celastrol], the IC50 in [7] was 0.401 µM; in test [8] (Plasmodium falciparum, NF54 gametocytes, luciferase, 48 h, mean ± SEM, read-out: Immature stage II-III (luc 48 h) IC50), 1.16 µM; in [9], 0.564 µM; in test [3] (NF54, 96 h), 0.82 ± 0.19 µM; in [10] it was 0.5 to 0.82 µM. The “Fold change preference ratio EG to LG” value in [8] (setting [12]) is on record as 0.2.
